From patent publication US20250074943A1, “DLL3 BINDING PEPTIDES AND USES THEREOF” (AMGEN INC., priority 2021, published 2025)
Numbered stars: 1 amine (or outer) side, 2 acyl side, 3 side chain; on linkers, the order of the positions; unused ones are H or OH. Bridge positions count the residues as written; N and C are the ends. Square brackets hold non-standard residues; d marks the D form. Ends that are not written are not given here. Peptide text beside a SMILES is read from it. * marks the point of attachment. X6 = CCOCCOCCOCCOCc1cn(CCCC[C@@H]2CC(=O)C(CC(=O)NCCCOCCOCCOCCCN*)NC2=O)nn1; X11 = NCCCC[C@H](NC(=O)CCC(=O)NCCCOCCOCCOCCCN*)C(N)=O; X4 = CC(C(=O)CN[*:1])[C@@H](C(=O)[*:2])[C@H](C)O; X5 = O=C([C@@H](CC1=CCc2ccccc21)N[*:1])[*:2]; Isobutyryl = CC(C)C(=O)*

Tests used:
[1] = molecular target: T1, recombinant DLL3 ectodomain (rhDLL3-Fc) (Homo sapiens, UniProt Q9NYJ7); assay: Binding kinetic assay using Bio-layer interferometry (BLI)
T1 construct: The recombinant DLL3 ectodomain (rhDLL3-Fc) was biotinylated; Fc
T1 sequence (Q9NYJ7 27-492 limits assumed): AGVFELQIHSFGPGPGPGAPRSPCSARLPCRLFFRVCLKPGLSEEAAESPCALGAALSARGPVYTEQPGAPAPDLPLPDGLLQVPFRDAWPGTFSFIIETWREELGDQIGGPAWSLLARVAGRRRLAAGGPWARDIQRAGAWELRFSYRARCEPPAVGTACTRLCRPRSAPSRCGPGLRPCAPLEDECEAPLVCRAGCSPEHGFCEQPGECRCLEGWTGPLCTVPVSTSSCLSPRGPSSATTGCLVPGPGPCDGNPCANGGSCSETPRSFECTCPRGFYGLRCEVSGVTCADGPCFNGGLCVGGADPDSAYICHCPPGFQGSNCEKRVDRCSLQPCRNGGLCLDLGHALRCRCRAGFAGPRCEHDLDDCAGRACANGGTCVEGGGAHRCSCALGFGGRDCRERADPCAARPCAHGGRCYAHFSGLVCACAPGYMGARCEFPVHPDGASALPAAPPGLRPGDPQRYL

[2] = molecular target: T2, native huDLL3 on the surface of cells (CHO cells) (Homo sapiens, UniProt Q9NYJ7); assay: Flow cytometry competition with AF647-labelled peptide; assay type: cell-based; details: for efficiency in competing the binding of the AF647-labelled PepSP1146: compared with monomer PepSP1146
T2 construct: expressed in transfected cells; host or cells: CHO (CHO-huDLL3)
T2 sequence (Q9NYJ7 27-618): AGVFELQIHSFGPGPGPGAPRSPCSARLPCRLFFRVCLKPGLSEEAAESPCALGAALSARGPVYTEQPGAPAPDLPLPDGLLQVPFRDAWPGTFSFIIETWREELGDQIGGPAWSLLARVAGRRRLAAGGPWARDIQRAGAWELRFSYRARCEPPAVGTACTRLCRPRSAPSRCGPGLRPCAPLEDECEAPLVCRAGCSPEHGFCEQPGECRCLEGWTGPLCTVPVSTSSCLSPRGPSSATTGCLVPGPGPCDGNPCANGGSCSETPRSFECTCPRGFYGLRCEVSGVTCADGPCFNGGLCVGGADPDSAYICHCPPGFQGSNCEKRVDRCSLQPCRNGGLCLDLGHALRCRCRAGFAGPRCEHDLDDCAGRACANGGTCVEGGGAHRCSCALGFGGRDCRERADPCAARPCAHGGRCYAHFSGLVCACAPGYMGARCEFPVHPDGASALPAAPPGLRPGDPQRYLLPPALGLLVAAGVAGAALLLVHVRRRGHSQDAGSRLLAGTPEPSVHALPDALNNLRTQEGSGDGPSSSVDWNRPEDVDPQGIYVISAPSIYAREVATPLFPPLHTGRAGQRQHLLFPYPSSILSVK
Description: HEK293-huDLL3, CHO-huDLL3 and the corresponding parental cell lines were detached with EDTA 2.5 mM and re-suspended at 1.8×10^6 cells/ml in FACS buffer (1×PBS, 2% FBS), distributed at 500 μl per testing tube and pelleted 5 min at 1300 rpm in a Heraeus Multifuge […] centrifuge.

rhDLL3-Fc = molecular target: T3, rhDLL3-Fc (Homo sapiens, UniProt Q9NYJ7); assay: SPR binding / off-rate screening (Biacore T200); details: Table 7, curve fitting of SPR sensorgrams; for koff: read-out: koff; for kon: read-out: kon
T3 construct: The recombinant DLL3 ectodomain (rhDLL3-Fc) was biotinylated; Fc
T3 sequence (Q9NYJ7 27-492 limits assumed): T1 sequence (Q9NYJ7 27-492 limits assumed)
Description: […] The recombinant DLL3 ectodomain (rhDLL3-Fc) was biotinylated using EZ-Link Sulfo-NHS-LC-LC-Biotin Kit according to the manufacturer's protocol (Pierce by Thermo Fisher Scientific). The recombinant protein was incubated with an excess of NHS-LC-LC Biotin ester, in a molar ratio of 1:3 (protein: biotin), at 25° C. for 90 min. The un-reacted biotin ester was removed by subsequent buffer exchange on 0.5 ml Zeba spin desalting columns 7K MWCO (Pierce by Thermo Fisher Scientific).
The off-rate screening of the peptides was done using a Biacore T200 instrument (Cytiva, Sweden). […] Sensorgrams were analyzed by Biacore T200 Evaluation Software 3.0 (Cytiva, Sweden): specific binding was obtained by subtracting unspecific binding to naked biosensors and a zero analyte concentration made of binding assay buffer (double referencing). […]

DLL3 = molecular target: T4, DLL3 (Homo sapiens, UniProt Q9NYJ7); assay: Binding of peptides with linkers and/or fluorescent agent to DLL3 (BLI, SPR; Table 6)
T4 construct: The recombinant DLL3 ectodomain (rhDLL3-Fc) was biotinylated; Fc
T4 sequence (Q9NYJ7 27-492 limits assumed): T1 sequence (Q9NYJ7 27-492 limits assumed)
Description: Binding kinetic assays were performed using Bio-layer interferometry (BLI) technology. The recombinant DLL3 ectodomain (rhDLL3-Fc) was biotinylated using EZ-Link Sulfo-NHS-LC-LC-Biotin Kit according to the manufacturer's protocol (Pierce by Thermo Fisher Scientific). The recombinant protein was incubated with an excess of NHS-LC-LC Biotin ester, in a molar ratio of 1:3 (protein: biotin), at 25° C. for 90 min. The un-reacted biotin ester was removed by subsequent buffer exchange on 0.5 ml Zeba spin desalting columns 7K MWCO (Pierce by Thermo Fisher Scientific).
The off-rate screening of the peptides was done using a Biacore T200 instrument (Cytiva, Sweden). […] Peptides were diluted at 300 nM in PBS-P+1× buffer (Cytiva, Sweden) supplemented with 1% DMSO and 0.1% BSA, then injected over the ligand for five minutes at 30 μl/min, finally dissociation allowed for 1 h. Sensorgrams were analyzed by Biacore T200 Evaluation Software 3.0 (Cytiva, Sweden): specific binding was obtained by subtracting unspecific binding to naked biosensors and a zero analyte concentration made of binding assay buffer (double referencing). Kinetic parameters of koff were measured using a global fitting according to 1:1 Langmuir binding isotherm equation.

Row | Compound | binding mode to DLL3 ([1]; peptides at 20, 4 and 0.8 μM, fit to 1:1 Langmuir binding model) | affinity ([1]; wider dose-response 10×KD to 0.1×KD) | IC50 [2] [µM] | efficiency in competing the binding of the AF647-labelled PepSP1146 [2] | Kd (rhDLL3-Fc) [µM] | koff (rhDLL3-Fc) [s⁻¹] | kon (rhDLL3-Fc) [M⁻¹ s⁻¹] | RT (DLL3)
1 | CC(C)[C@H](NC(=O)[C@@H](NC(=O)[C@H](CCC(=O)O)NC(=O)[C@H](C)N)[C@@H](C)O)C(=O)N[C@@H](CCC(=O)O)C(=O)N[C@@H](Cc1ccccc1)C(=O)N[C@@H](Cc1c[nH]c2ccccc12)C(=O)NCC(=O)N[C@H]1CSSC[C@@H](C(=O)N[C@@H](Cc2c[nH]c3ccccc23)C(=O)N[C@@H](Cc2c[nH]c3ccccc23)C(N)=O)NC(=O)[C@H]([C@@H](C)O)NC(=O)[C@H](CCC(=O)O)NC(=O)[C@H](CC(N)=O)NC(=O)CNC(=O)[C@H](Cc2c[nH]c3ccccc23)NC(=O)[C@H]([C@@H](C)O)NC(=O)CNC(=O)[C@H]([C@@H](C)O)NC1=O [PepSP1146] | dose-response saturable binding | double-digit nM range | 0.076 |  |  |  |  | 
2 | CC(C)[C@H](NC(=O)[C@@H](NC(=O)[C@H](CCC(=O)O)NC(=O)[C@H](C)N)[C@@H](C)O)C(=O)N[C@@H](CCC(=O)O)C(=O)N[C@@H](Cc1ccccc1)C(=O)N[C@@H](Cc1c[nH]c2ccccc12)C(=O)NCC(=O)N[C@H]1CSSC[C@@H](C(=O)N[C@@H](Cc2c[nH]c3ccccc23)C(=O)N[C@@H](Cc2c[nH]c3ccccc23)C(=O)NCCCOCCOCCOCCCNC(=O)CCC(=O)N[C@@H](CCCCn2cc(COCCOCCOCCOCCOCCOCc3cn(CCCC[C@H](NC(=O)CCC(=O)NCCCOCCOCCOCCCNC(=O)[C@H](Cc4c[nH]c5ccccc45)NC(=O)[C@H](Cc4c[nH]c5ccccc45)NC(=O)[C@@H]4CSSC[C@H](NC(=O)CNC(=O)[C@H](Cc5c[nH]c6ccccc56)NC(=O)[C@H](Cc5ccccc5)NC(=O)[C@H](CCC(=O)O)NC(=O)[C@@H](NC(=O)[C@@H](NC(=O)[C@H](CCC(=O)O)NC(=O)[C@H](C)N)[C@@H](C)O)C(C)C)C(=O)N[C@@H]([C@@H](C)O)C(=O)NCC(=O)N[C@@H]([C@@H](C)O)C(=O)N[C@@H](Cc5c[nH]c6ccccc56)C(=O)NCC(=O)N[C@@H](CC(N)=O)C(=O)N[C@@H](CCC(=O)O)C(=O)N[C@@H]([C@@H](C)O)C(=O)N4)C(N)=O)nn3)nn2)C(N)=O)NC(=O)[C@H]([C@@H](C)O)NC(=O)[C@H](CCC(=O)O)NC(=O)[C@H](CC(N)=O)NC(=O)CNC(=O)[C@H](Cc2c[nH]c3ccccc23)NC(=O)[C@H]([C@@H](C)O)NC(=O)CNC(=O)[C@H]([C@@H](C)O)NC1=O [PepSP1270] |  |  | 0.0153 | higher efficiency | 0.003 | 0.00024 | 74300 | 
3 | CC(C)[C@H](NC(=O)[C@@H](NC(=O)[C@H](CCC(=O)O)NC(=O)[C@H](C)N)[C@@H](C)O)C(=O)N[C@@H](CCC(=O)O)C(=O)N[C@@H](Cc1ccccc1)C(=O)N[C@@H](Cc1c[nH]c2ccccc12)C(=O)NCC(=O)N[C@H]1CSSC[C@@H](C(=O)N[C@@H](Cc2c[nH]c3ccccc23)C(=O)N[C@@H](Cc2c[nH]c3ccccc23)C(=O)NCCCOCCOCCOCCCNC(=O)CCC(=O)N[C@@H](CCCCn2cc(COCCOCCOCCOCCOCCOCCOCCOCCOCCOCCOCCOCCOCCOCc3cn(CCCC[C@H](NC(=O)CCC(=O)NCCCOCCOCCOCCCNC(=O)[C@H](Cc4c[nH]c5ccccc45)NC(=O)[C@H](Cc4c[nH]c5ccccc45)NC(=O)[C@@H]4CSSC[C@H](NC(=O)CNC(=O)[C@H](Cc5c[nH]c6ccccc56)NC(=O)[C@H](Cc5ccccc5)NC(=O)[C@H](CCC(=O)O)NC(=O)[C@@H](NC(=O)[C@@H](NC(=O)[C@H](CCC(=O)O)NC(=O)[C@H](C)N)[C@@H](C)O)C(C)C)C(=O)N[C@@H]([C@@H](C)O)C(=O)NCC(=O)N[C@@H]([C@@H](C)O)C(=O)N[C@@H](Cc5c[nH]c6ccccc56)C(=O)NCC(=O)N[C@@H](CC(N)=O)C(=O)N[C@@H](CCC(=O)O)C(=O)N[C@@H]([C@@H](C)O)C(=O)N4)C(N)=O)nn3)nn2)C(N)=O)NC(=O)[C@H]([C@@H](C)O)NC(=O)[C@H](CCC(=O)O)NC(=O)[C@H](CC(N)=O)NC(=O)CNC(=O)[C@H](Cc2c[nH]c3ccccc23)NC(=O)[C@H]([C@@H](C)O)NC(=O)CNC(=O)[C@H]([C@@H](C)O)NC1=O [PepSP1271] |  |  | 0.01 | higher efficiency | 0.003 | 0.00028 | 104000 | 
4 | CCOCCOCCOCCOCc1cn(CCCC[C@@H]2CC(=O)C(CC(=O)NCCCOCCOCCOCCCNC(=O)[C@@H](Cc3c[nH]c4ccccc34)NC(=O)[C@@H](CC3=CCc4ccccc43)NC(=O)[C@H]3CSSC[C@@H](NC(=O)CNC(=O)[C@@H](Cc4c[nH]c5ccccc45)NC(=O)[C@@H](Cc4ccccc4)NC(=O)[C@@H](CCC(=O)O)NC(=O)[C@H](NC(=O)[C@H](NC(=O)[C@@H](CCC(=O)O)NC(=O)C(C)C)[C@H](C)O)C(C)C)C(=O)N[C@H]([C@H](C)O)C(=O)NCC(=O)C(C)[C@H]([C@H](C)O)C(=O)N[C@H](Cc4c[nH]c5ccccc45)C(=O)NCC(=O)N[C@H](CC(N)=O)C(=O)N[C@H](CCC(=O)O)C(=O)N[C@H]([C@H](C)O)C(=O)N3)NC2=O)nn1 (stereo partly drawn) [PepSP1272] (Isobutyryl-[dE][dT][dV][dE][dF][dW]G[dC][dT][X4][dW]G[dN][dE][dT][dC][X5][dW]-X6; disulfide 8-16) |  |  |  | higher efficiency |  | 5.5e-05 | 90000 | 
5 | CC(=O)N[C@@H](C)C(=O)N[C@@H](CCC(=O)O)C(=O)N[C@H](C(=O)N[C@H](C(=O)N[C@@H](CCC(=O)O)C(=O)N[C@@H](Cc1ccccc1)C(=O)N[C@@H](Cc1c[nH]c2ccccc12)C(=O)NCC(=O)N[C@H]1CSSC[C@@H](C(=O)N[C@@H](Cc2c[nH]c3ccccc23)C(=O)N[C@@H](Cc2c[nH]c3ccccc23)C(=O)NCC(=O)NCC(=O)NCCCOCCOCCOCCCNC(=O)CCC(=O)N[C@@H](CCCCN)C(N)=O)NC(=O)[C@H]([C@@H](C)O)NC(=O)[C@H](CCC(=O)O)NC(=O)[C@H](CC(N)=O)NC(=O)CNC(=O)[C@H](Cc2c[nH]c3ccccc23)NC(=O)[C@H]([C@@H](C)O)NC(=O)CNC(=O)[C@H]([C@@H](C)O)NC1=O)C(C)C)[C@@H](C)O [PepSP1321] (Ac-AETVEFWGCTGTWGNETCWWGG-X11; disulfide 9-18) |  |  |  |  |  |  |  | 369
6 | AETVEFWSCVVYGDNWTCSS-CONH2 (AETVEFWSCVVYGDNWTCSS-NH2; disulfide 9-18 (inferred)) [PepSP1172] |  |  |  | most efficient binder |  |  |  | 
